# Reference: BindingDB's records for patent WO2022076764 (BRISTOL-MYERS SQUIBB COMPANY, 2022)
# Legend:
# [1] = target: T1, N-formyl peptide receptor 2 (Homo sapiens, UniProt P25090)
# T1 sequence (P25090 whole entry): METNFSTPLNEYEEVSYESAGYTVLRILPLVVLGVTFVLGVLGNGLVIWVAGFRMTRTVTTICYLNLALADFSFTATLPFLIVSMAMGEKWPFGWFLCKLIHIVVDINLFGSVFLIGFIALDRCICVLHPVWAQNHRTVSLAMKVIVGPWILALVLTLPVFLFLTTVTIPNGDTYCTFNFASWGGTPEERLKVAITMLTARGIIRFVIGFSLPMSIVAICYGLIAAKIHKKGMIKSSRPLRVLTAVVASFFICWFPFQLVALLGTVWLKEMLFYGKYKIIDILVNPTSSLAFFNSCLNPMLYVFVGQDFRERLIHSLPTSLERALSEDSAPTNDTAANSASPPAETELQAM
# [2] = target: T2, fMet-Leu-Phe receptor (Homo sapiens, UniProt P21462)
# T2 sequence (P21462 whole entry): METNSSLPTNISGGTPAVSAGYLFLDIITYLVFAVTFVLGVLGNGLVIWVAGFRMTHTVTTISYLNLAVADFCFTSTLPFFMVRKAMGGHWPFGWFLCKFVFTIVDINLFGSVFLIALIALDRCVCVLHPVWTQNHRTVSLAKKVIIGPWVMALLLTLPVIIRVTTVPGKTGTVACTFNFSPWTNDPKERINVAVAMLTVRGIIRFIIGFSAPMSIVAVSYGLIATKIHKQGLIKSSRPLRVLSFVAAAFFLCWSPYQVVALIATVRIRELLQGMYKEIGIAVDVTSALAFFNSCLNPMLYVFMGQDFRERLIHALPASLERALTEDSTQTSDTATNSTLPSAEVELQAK
SMILES,EC50 [1] [µM],EC50 [2] [µM]
"COc1ccc(-n2cc(-c3ccccc3)nc2NC(=O)c2ccc(OC(F)F)cc2)cc1 [WO2022076764, Example 2]",0.038,0.003
"COc1cccc(-c2cn(-c3c(F)cc(OC)cc3F)c(NC(=O)c3ccc(OC(F)F)cc3)n2)c1 [WO2022076764, Example 3]",0.088,0.008
"COc1cc(F)c(-n2cc(-c3ccc(Cl)c(C)c3)nc2NC(=O)c2ccc(OC(F)F)cc2)c(F)c1 [WO2022076764, Example 5]",0.14,0.047
"COc1cc(F)c(-n2c(NC(=O)c3ccc(OC(F)F)cc3)nc(-c3ccccc3)c2C)c(F)c1 [WO2022076764, Example 8]",0.23,0.008
"COc1cc(F)c(-n2cc(-c3ccc4ccccc4c3)nc2NC(=O)c2ccc(OC(F)F)cc2)c(F)c1 [WO2022076764, Example 9]",0.46,0.22
"COc1cc(F)c(-n2c(NC(=O)c3ccc(OC(F)F)cc3)nc(-c3ccc(Cl)cc3)c2C)c(F)c1 [WO2022076764, Example 13]",0.55,0.053
"COc1cc(F)c(-n2cc(-c3cccc(C#N)c3)nc2NC(=O)c2ccc(OC(F)F)cc2)c(F)c1 [WO2022076764, Example 17]",0.046,0.005
"COc1ccc(-n2cc(-c3ccc4c(c3)CCO4)nc2NC(=O)c2ccc(OC(F)F)cc2)cc1 [WO2022076764, Example 19]",0.093,0.028
"COc1ccc(-n2cc(-c3ccnc(Cl)c3)nc2NC(=O)c2ccc(OC(F)F)cc2)cc1 [WO2022076764, Example 20]",0.019,0.005
"COc1ccc(-n2cc(-c3ccc(F)cc3F)nc2NC(=O)c2ccc(OC(F)F)cc2)cc1 [WO2022076764, Example 21]",0.076,0.029
"COc1ccc(-n2cc(-c3ccc4sccc4c3)nc2NC(=O)c2ccc(OC(F)F)cc2)cc1 [WO2022076764, Example 22]",0.14,0.086

# Further lines, results first:
EC50 [1] [µM],EC50 [2] [µM],SMILES
0.2,0.004,"COc1cc(F)c(-n2cc(-c3ccccc3)nc2NC(=O)c2ccc(OC(F)F)cc2)c(F)c1 [WO2022076764, Example 1]"
0.4,0.011,"COc1cc(F)c(-n2cc(-c3ccc(F)cc3)nc2NC(=O)c2ccc(OC(F)F)cc2)c(F)c1 [WO2022076764, Example 4]"
0.12,0.076,"COc1cc(F)c(-n2cc(-c3ccc(C(F)(F)F)cc3)nc2NC(=O)c2ccc(OC(F)F)cc2)c(F)c1 [WO2022076764, Example 6]"
0.19,0.033,"COc1cc(F)c(-n2cc(-c3ccc(OC(F)F)cc3)nc2NC(=O)c2ccc(OC(F)F)cc2)c(F)c1 [WO2022076764, Example 7]"
0.2,0.007,"COc1cc(F)c(-n2cc(-c3cccc(F)c3)nc2NC(=O)c2ccc(OC(F)F)cc2)c(F)c1 [WO2022076764, Example 10]"
0.14,0.024,"COc1cc(F)c(-n2cc(-c3ccc(Cl)cc3)nc2NC(=O)c2ccc(OC(F)F)cc2)c(F)c1 [WO2022076764, Example 11]"
0.45,0.015,"COc1cc(F)c(-n2cc(-c3cccc(Cl)c3)nc2NC(=O)c2ccc(OC(F)F)cc2)c(F)c1 [WO2022076764, Example 12]"
0.16,0.039,"COc1ccc(-c2cn(-c3c(F)cc(OC)cc3F)c(NC(=O)c3ccc(OC(F)F)cc3)n2)cc1 [WO2022076764, Example 14]"
0.13,0.023,"COc1cc(F)c(-n2cc(-c3ccc(C)cc3)nc2NC(=O)c2ccc(OC(F)F)cc2)c(F)c1 [WO2022076764, Example 15]"
0.23,0.027,"COc1cc(F)c(-n2cc(-c3ccc(C#N)cc3)nc2NC(=O)c2ccc(OC(F)F)cc2)c(F)c1 [WO2022076764, Example 16]"
0.4,0.051,"COc1cc(F)c(-n2cc(-c3ccc(Cl)c(Cl)c3)nc2NC(=O)c2ccc(OC(F)F)cc2)c(F)c1 [WO2022076764, Example 18]"
